Where no end group is shown, it is not given here.
Key:
[1] = test system: exoproteases in B. subtilis PS-216 floating biofilm spent media; test: Proteolytic activity of harvested floating biofilm spent media with EDTA or subtilisin added after harvest (casein-gelatin plates); assay type: biochemical, Bacillus subtilis; details: EDTA 1 mM added to wt floating biofilm spent medium, 16 h at 37°C
Protocol: To prepare casein gelatin agar plates 1% (w/v) casein sodium salt from bovine milk (Sigma–Aldrich, United States) and 1% (w/v) gelatin from porcine skin (Sigma–Aldrich, United States) were thoroughly dissolved in 0.02 M NaOH and the pH was equilibrated to 7 ± 0.2 as described by [Montville (1983)]. […] Finally, 1.5% (w/v) of agar was added to the casein gelatin medium. The casein gelatin medium was autoclaved at 110°C. 40 ml of the medium was poured into Petri dishes with 9 cm diameter. Wells (6 mm diameter) were cut into the casein gelatin agar using an agar punch cutter.
Proteolytic activity was determined in B. subtilis spent medium at different time points. The spent medium below the biofilm was centrifuged for 5 min at 8000 g to remove remaining planktonic cells and sterilized through filters with 0.2 μm pores. Spent medium was diluted in 10 mM sodium acetate buffer with 5 mM calcium acetate (pH 7.5). If EDTA was added to experimental samples, spent medium was diluted in PBS buffer (10 mM sodium phosphate dibasic, 1 mM potassium phosphate monobasic, 137 mM NaCl, and 2.7 mM KCl pH 7). The diluted spent medium (100 μl) was dispensed into the wells punched into the casein gelatin agar. The plates were incubated for 16 h at 37°C when the proteolytic zones were measured. […]

[2] = test system: PaprE-gfp expression in B. subtilis PS-216 mutants; test: PaprE-gfp expression during formation of floating biofilm, complementation with ComX; assay type: cell-based, Bacillus subtilis
Protocol: To measure gene expression in floating biofilms (pellicles) a spore suspension 1% (v/v) was inoculated into the liquid MSgg medium. In some experiments the MSgg medium was supplemented with 20% (v/v) of the spent medium containing ComX, which was heterologously produced by E. coli ED367 ([Ansaldi et al., 2002]). The spent M9 medium of E. coli ED367 that was not induced by IPTG was used as a negative control.
Briefly, 200 μl aliquots of inoculated MSgg medium, sometimes supplemented with M9 spent medium were dispensed in a sterile 96-well black transparent bottom microtiter plate in four technical replicates. The lid was sealed with micropore tape and the space between wells was filled with sterile distilled water to minimize the effect of medium evaporation. The microtiter plate was incubated in the Cytation 3 imaging reader (BioTek, United States) at 37°C without shaking. Optical density at 650 nm and fluorescence intensity were measured in half hour intervals for up to 60 h. Fluorescence intensity of GFP (green fluorescent protein) was used to monitor PaprE-gfp expression with excitation at 480 nm and emission at 510 nm. The gain was set on 50. In a parallel experimental setup the same strains without the fluorescent marker were always cultured. To calculate the final expression the autofluorescence of unmarked strains was deducted from the fluorescence of the marked strains. Fluorescence intensity was normalized per OD650 of fluorescently labeled strains at each time point.

[3] = test system: exoproteases in B. subtilis PS-216 floating biofilm spent media; test: ComX biological activity decay in floating biofilm spent media (biosensor BM1456, PsrfAA-yfp); assay type: in vitro ADME, Bacillus subtilis; details: for ComX biological activity decay: T0 vs 24 h at 37°C, three biological replicates
Protocol: (§1) The ComX biological activity was quantified in spent media of various B. subtilis strains harvested after 36 and 48 h of static growth, using biosensor strains: B. subtilis BM1456 and BM1400. […] The BM1400 strain only served to determine background fluorescence, since it carries no fluorescent marker. […] The BM1456 biosenor responds to ComX in the spent medium by inducing the PsrfAA-yfp reporter ([Oslizlo et al., 2014]). Since the induction of PsrfAA is proportional to the quantity of ComX ([Ansaldi et al., 2002]) we used this assay to estimate the quantity of biologically active ComX in the spent media of various pellicles.
(§2) Both biosensor strains were grown in 5 ml of CM medium supplemented with 1% (v/v) of filtered spent media of selected strains for 6 h at 37°C with shaking (200 rpm). After 6 h of incubation 200 μl aliquots were dispensed in a sterile 96-well black transparent bottom microtiter plate. The PsrfAA-yfp expression was quantified by YFP (yellow fluorescent protein) fluorescence intensity. YFP was excited at 510 nm and emissions were measured at 530 nm. The gain was set to 100. Each PsrfAA-yfp reading was normalized to OD650. The normalized autofluorescence background of BM1400 grown in the same experimental conditions was subtracted. Additionally, we subtracted the PsrfAA-yfp expression of cells exposed to ΔcomQ spent medium (lacks ComX), to account for ComX independent YFP expression.
ComX biological activity was determined in the spent media immediately after harvest (T0) and after a 24 h (T24) incubation at 37°C. We reasoned that if exoproteases in the spent medium degrade ComX the ComX biological activity at T0 will be greater than at T24. To calculate the ComX biological activity decay we used the following equation:
ComXbiologicalactivitydecay[%]= ComXbiologicalactivity(To)−ComXbiologicalactivity(T24)/ComXbiologicalactivity(To)*100
The same approach was used to determine ComX biological activity decay in the spent media supplemented with subtilisin (0.1 mg/ml) or metalloprotease inhibitor EDTA (1 mM) after harvesting or to estimate the effect of commercially available subtilisin on ComX heterologously produced in E. coli ED367.

[4] = test system: B. subtilis PS-216 ΔcomQ floating biofilm; test: Floating biofilm morphology after addition of ComX; assay type: cell-based, Bacillus subtilis; details: ΔcomQ mutant at 24 h, MSgg + 20% (v/v) ED367 M9 spent medium with ComX
Protocol: (§3) To harvest pellicle spent media 1% (v/v) of B. subtilis spores were inoculated in 4 ml of MSgg medium ([Branda et al., 2001]), in some cases complemented with 20% (v/v) spent M9 minimal medium and incubated in sterile 12-well microtiter plates in static conditions at 37°C.

subtilisin = test: ComX biological activity decay in E. coli ED367 M9 spent medium with subtilisin (biosensor BM1456); assay type: in vitro ADME; details: E. coli ED367 M9 spent medium with heterologous ComX, subtilisin 0.1 mg/ml, 24 h at 37°C, vs subtilisin untreated control, three biological replicates
Protocol: as §1
as §2, with “Additionally, we subtracted the PsrfAA-yfp expression of cells exposed to ΔcomQ spent medium (lacks ComX), to account for ComX independent YFP expression.” left out
ComX biological activity was determined in the spent media immediately after harvest (T0) and after a 24 h (T24) incubation at 37°C. […]

[5] = test system: exoprotease production of B. subtilis PS-216 ΔcomQ floating biofilms; test: Proteolytic activity in spent media of floating biofilms grown with ComX (casein-gelatin plates); assay type: cell-based, Bacillus subtilis; details: ΔcomQ mutant, 24 h floating biofilm in MSgg + 20% (v/v) ED367 M9 spent medium with ComX, 12-well plates, 37°C; casein-gelatin plate zones; three biological replicates
Protocol: as §3
To prepare casein gelatin agar plates 1% (w/v) casein sodium salt from bovine milk (Sigma–Aldrich, United States) and 1% (w/v) gelatin from porcine skin (Sigma–Aldrich, United States) were thoroughly dissolved in 0.02 M NaOH and the pH was equilibrated to 7 ± 0.2 as described by [Montville (1983)]. Wherever, the proteolytic inhibition by ethylenediaminetetraacetic acid (EDTA) was tested, EDTA was added to the casein gelatin medium in 1 mM final concentration. Finally, 1.5% (w/v) of agar was added to the casein gelatin medium. The casein gelatin medium was autoclaved at 110°C. 40 ml of the medium was poured into Petri dishes with 9 cm diameter. Wells (6 mm diameter) were cut into the casein gelatin agar using an agar punch cutter.
Proteolytic activity was determined in B. subtilis spent medium at different time points. The spent medium below the biofilm was centrifuged for 5 min at 8000 g to remove remaining planktonic cells and sterilized through filters with 0.2 μm pores. […] The plates were incubated for 16 h at 37°C when the proteolytic zones were measured. […]

Compound	effect on proteolytic activity of spent medium [1]	complementation of PaprE-gfp expression ([2]; degQ::tet mutant of PS-216, MSgg + 20% (v/v) ED367 M9 spent medium with ComX)	complementation of PaprE-gfp expression ([2]; ΔcomQ degQ::tet double mutant of PS-216, MSgg + 20% (v/v) ED367 M9 spent medium with ComX)	complementation of PaprE-gfp expression ([2]; ΔcomQ mutant of PS-216, floating biofilm in MSgg + 20% (v/v) M9 spent medium of IPTG-induced E. coli ED367 (heterologous ComX), 37°C, control non-induced spent medium, GFP fluorescence per OD650, three biological replicates)	ComX biological activity decay, change with subtilisin ([3]; comP::cat or degQ::tet spent media + subtilisin 0.1 mg/ml added after harvest vs without, 24 h at 37°C, biosensor BM1456)	ComX biological activity decay ([3]; spent media of mutant strains (degQ::tet, comP::cat; low proteolytic activity) harvested at 36 and 48 h, biosensor BM1456)	ComX biological activity decay ([3]; spent media of wt PS-216 floating biofilms harvested at 36 and 48 h (MSgg), biosensor BM1456 PsrfAA-yfp fluorescence)	ComX biological activity decay, change with EDTA ([3]; wt spent medium + EDTA 1 mM added after harvest vs without, 24 h at 37°C, biosensor BM1456)	floating biofilm morphology [4]	decay of the ComX biological activity, change with subtilisin (subtilisin)	complementation of spent media proteolytic activity [5]
O=C(O)CN(CCN(CC(=O)O)CC(=O)O)CC(=O)O [EDTA, ethylenediaminetetraacetic acid]	decreases										
ComX: auto-inducing signaling peptide of B. subtilis ComQXPA system, modified by isoprenyl transferase ComQ; native in spent media or heterologously produced by E. coli ED367 (ADPITRQWGD; also: isoprenylated by ComQ, site not given here; UniProt P45453 46-55, looked up)		does not complement	does not complement	complementation was partial	increased	low	high	decreases	restores the ΔcomQ mutant floating biofilm morphology to the wt morphology	increases	complemented
